One experiment concerns the target Aurora kinase B (Homo sapiens, UniProt Q96GD4). The experiment can be described thus: Inhibition Assay: Kinase assays were performed at Reaction Biology Corp., Malvern, Pa., USA, using the following general procedure:1) Prepare indicated substrate in freshly prepared Base Reaction Buffer (20 mM Hepes pH 7.5, 10 mM MgCl2, 1 mM EGTA, 0.02% Brij35, 0.02 mg/ml BSA, 0.1 mM Na3VO4, 2 mM DTT, 1% DMSO).2) Deliver cofactors (1.5 mM CaCl2, 16 ug/mL Calmodulin, 2 mM MnCl2) to the substrate solution above.3) Deliver indicated kinase into the substrate solution and gently mix4) Deliver varying concentrations of test compound in DMSO into the kinase reaction mixture.5) Deliver 33P-ATP (specific activity 0.01 uCi/uL final) into the reaction mixture to initiate the reaction.6) Incubate kinase reaction for 120 min at room temperature.7) Reactions are spotted onto P81 ion exchange filter paper (Whatman #3698-915)8) Unbound phosphate is removed by washing filters extensively in 0.75% phosphoric acid.9) 33P signal was determined using Typhoon phosphorimagers (GE Healthcare).

Experiment [1] deals with T1, Receptor-type tyrosine-protein kinase FLT3 (Homo sapiens, UniProt P36888).
T1 sequence (P36888 whole entry): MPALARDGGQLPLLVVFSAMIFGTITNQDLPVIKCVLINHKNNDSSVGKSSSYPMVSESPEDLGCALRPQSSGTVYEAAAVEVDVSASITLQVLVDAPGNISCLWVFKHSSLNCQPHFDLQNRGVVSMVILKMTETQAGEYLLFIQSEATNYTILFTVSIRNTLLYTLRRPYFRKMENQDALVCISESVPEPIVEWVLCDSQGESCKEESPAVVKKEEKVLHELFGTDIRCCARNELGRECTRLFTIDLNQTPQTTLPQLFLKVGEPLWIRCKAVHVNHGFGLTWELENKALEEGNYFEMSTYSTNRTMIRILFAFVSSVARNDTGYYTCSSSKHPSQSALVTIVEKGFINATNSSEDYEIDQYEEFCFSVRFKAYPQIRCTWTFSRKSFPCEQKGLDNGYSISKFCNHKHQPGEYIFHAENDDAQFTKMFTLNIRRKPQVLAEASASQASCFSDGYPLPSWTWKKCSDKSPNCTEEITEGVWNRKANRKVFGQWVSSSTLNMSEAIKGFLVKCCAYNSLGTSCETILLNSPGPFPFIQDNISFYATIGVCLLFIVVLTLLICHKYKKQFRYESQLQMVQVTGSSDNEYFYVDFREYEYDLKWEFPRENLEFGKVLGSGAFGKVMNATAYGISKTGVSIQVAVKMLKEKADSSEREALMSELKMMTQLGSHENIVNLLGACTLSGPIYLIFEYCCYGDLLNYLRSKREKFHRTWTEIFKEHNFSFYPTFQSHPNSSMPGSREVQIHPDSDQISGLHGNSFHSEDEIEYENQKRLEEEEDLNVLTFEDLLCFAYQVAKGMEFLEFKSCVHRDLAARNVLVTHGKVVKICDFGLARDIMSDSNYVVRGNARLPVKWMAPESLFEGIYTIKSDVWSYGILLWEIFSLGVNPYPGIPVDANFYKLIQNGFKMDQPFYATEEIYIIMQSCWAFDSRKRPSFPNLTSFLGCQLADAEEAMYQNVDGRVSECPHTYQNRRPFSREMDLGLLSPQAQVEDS
The experiment can be described thus: Inhibition Assay: Kinase assays were performed at Reaction Biology Corp., Malvern, Pa., USA, using the following general procedure:1) Prepare indicated substrate in freshly prepared Base Reaction Buffer (20 mM Hepes pH 7.5, 10 mM MgCl2, 1 mM EGTA, 0.02% Brij35, 0.02 mg/ml BSA, 0.1 mM Na3VO4, 2 mM DTT, 1% DMSO).2) Deliver cofactors (1.5 mM CaCl2, 16 ug/mL Calmodulin, 2 mM MnCl2) to the substrate ….

As a reminder, the IC50 is the concentration that inhibits the measured activity by half.

Aurora kinase B, sequence (Q96GD4 whole entry): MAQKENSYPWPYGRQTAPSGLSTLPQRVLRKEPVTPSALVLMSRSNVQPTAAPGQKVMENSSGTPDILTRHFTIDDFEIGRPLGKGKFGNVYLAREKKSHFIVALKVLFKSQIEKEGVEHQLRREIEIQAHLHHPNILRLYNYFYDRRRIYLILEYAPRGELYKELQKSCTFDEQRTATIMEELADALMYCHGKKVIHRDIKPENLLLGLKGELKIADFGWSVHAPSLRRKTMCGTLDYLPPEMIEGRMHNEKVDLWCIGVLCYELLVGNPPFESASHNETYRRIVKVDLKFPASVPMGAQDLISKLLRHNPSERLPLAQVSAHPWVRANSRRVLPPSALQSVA

Take `CCc1ccc(-c2nc(C(N)=O)c(-c3ccc(N4CCNC(C)(C)C4)cc3)o2)c2cc[nH]c12`: the IC50 is 12 nM at Aurora kinase B and 0.67 nM in experiment [1].
